Measured values from patent US4939134A, “26-aminocholesterol and derivatives and analogs thereof in the regulation of cholesterol accumulation in body tissue” (New York University, priority 1988, dated 1990).
“Also recorded” adds a separate entry of the source.

Legend:
HepG2 Cells = assay: De novo cholesterol synthesis in HepG2 hepatocytes (D2O); assay type: cell-based, human; details: for % DE NOVO (De Novo Cholesterol Synthesis): HepG2, 96 h, n = 3, untreated 55.8; for de novo cholesterol synthesis (in words): HepG2 / human hepatocytes
Text: HepG2 cells were obtained from Dr. Barbara Knowles of the Wistar Institute, Pennsylvania. The HepG2 stock monolayers were maintained under the same conditions as the fibroblast monolayers, in a medium comprising MEM supplemented with 10% heat-inactivated FBS, and 1% (v/v) each of penicillin-streptomycin solution, non-essential and essential amino acids, and L-glutamine.
For experiments using HepG2 cells, confluent stock monolayers were washed once with Dulbecco's PBS, dissociated with 0.05-0.02% trypsin-EDTA followed by treatment with deoxyribonuclease I (0.1%), and were seeded (3.0×10^6) under identical conditions. The experimental MEM contained 25% (v/v) D2 O, 9% (v/v) delipidated FBS, and 1% (v/v) each of heat-inactivated FBS, penicillin-streptomycin, essential and non-essential amino acids, L-glutamine and 20 mM HEPES.
(§1) The fibroblast and hepatoblastoma cells were cultured in media containing 25% D2 O and 1% FBS in order to determine de novo cholesterol synthesis under conditions that permit receptor mediated cholesterol transport, according to the method of Easterman & Javitt et al., J. Lipid Res., 26: 950-954 (1985). Dish cultures of each cell type were prepared, and 26-aminocholesterol, dissolved in N,N-dimethylformamide (DMF, 9 ul per dish, 0.3% v/v) was added to each culture. The cells were then grown to confluence (96 hours, day 5). […] Duplicate or triplicate dishes containing 9 ul of DMF, but without 26-aminocholesterol, were used as controls.
(§2) After 96 hours of incubation, medium was removed from the cell cultures, and the cells were washed with Dulbecco's PBS and were harvested with 0.05% trypsin - 0.02% EDTA. The protease was deactivated with an equivolume aliquot of soybean trypsin inhibitor, and the resulting cell suspension was centrifuged for 5 minutes at 500xg. An internal standard of 5B-cholestan-3B-ol was added to the pellets prior to extraction with an 8:4:3 chloroform:methanol:water Folch mixture, as described in Folch et al., J. Biol. Chem., 266: 497-509 (1957). An aliquot of the extract was blown to dryness under nitrogen and silylated with 2:1:1 MSTFA (a sylated reagent supplied by Pierce Co.): toluene:-pyridine. Free cholesterol was determined by gas-liquid chromatography (GLC) on a Perkin-Elmer capillary gas-liquid chromatography model 8320 fitted with a 20 m DE-1 methylsilicon glass column (Supelco). The remaining extract was dried and saponified with 2% ethanolic KOH at 80° C. for one hour. The […] was then re-extracted and total cholesterol was measured by GLC after silylation. Cholesterol ester was calculated as the difference between the total and free cholesterol determinations. Newly synthesized cholesterol was determined by GLC-MS isotope mass ratios, using a Hewlett-Packard GC-MS spectrometer model 5890 fitted with DB-1 methyl silicon 0.18 i.d. 20 m glass column (Supelco), according to the method of J. Lipid. Res., 26: 950-954, supra. […]

Human Fibroblasts = assay: Total cell cholesterol and percent esterified cholesterol in human fibroblasts; assay type: cell-based; details: 96 h, n = 3
Procedure: (§3) Normal LDLR(+) human fibroblasts (GM3440) were obtained from the National Institute of General Medical Sciences Human Genetic Cell Repository. Stock fibroblast monolayers were maintained in T-75 disposable Nunc flasks, in a medium comprising 10 ml of MEM (Eagle's Minimum Essential Medium with Earl's salts, pH 7.4) supplemented with 10% (v/v) fetal bovine serum (FBS), 2% (v/v) non-essential and essential amino acids, 1% (v/v) MEM vitamins, 1% L-glutamine (292 ug/ml), 1% penicillin (100 U/ml)-streptomycin (100 ug/ml). The fibroblast stock was maintained at 37° C. in a humidified atmosphere of 5% CO2 and 95% air.
(§4) For experiments using fibroblasts, confluent stock cultures (5-18 passages) were washed once with Dulbecco's PBS (phosphate buffered saline) prior to the addition of 3 ml aliquots of experimental MEM containing 25% (v/v) D2 O, 9% (v/v) dilapidated FBS, 1% FBS (v/v), 1% MEM vitamins and L-glutamine, and 2% of essential and non-essential amino acids and 20 mM HEPES buffer.
as §1, §2

[1] = test system: LDLR (+) Human Fibroblasts; assay: Total 125I-LDL binding to human fibroblasts; assay type: cell-based; details: for 125I-LDL BINDING: 10 ug/ml 125I-LDL, 4 h, 37° C., n = 3, untreated 49.7; for LDL-binding (in words): human fibroblasts / tissue cells
Procedure: as §3, §4, §1
LDL (d, 1.019-1.03) was isolated by sequential preparative ultracentrifugation of normal human plasma, using solid KBr for density adjustment, according to the methods of Havel et al., J. Clin. Invest., 34: 1345-1353 (1955) and Radding & Steinberg, J Clin. Invest., 39: 1560-1569 (1960). The isolated LDL was then iodinated with ^125 INa by the monochloride procedure of McFarlane, Nature, 102: 53 (1958), as modified for lipoproteins according to Bilheimer et al., Biochim. Biophys. Acta. 260: 212-221 (1972). To remove free iodine, the LDL preparation was subjected to column chromatography on a Sephadex G-25M disposable mini-column (Pharmacia PD-10) and was dialized against 0.15 M NaCl and […] EDTA, pH 7.4. The specific activity of all LDL preparations ranged between 160-300 cpm/mg of LDL proteins. ^125 I-LDL was stored at 4° C. and was sterilized by filtration through a 0.45 um membrane just prior to incubation with the treated fibroblast and hepatoblastoma cell cultures and control cultures.
For binding studies, a fixed concentration of 10 ug/ml of ^125 I-LDL was added directly to the monolayers of the confluent culture medium (at or near the 96th hour) and incubation was continued for a further 4 hours at 37° C. for fibroblasts and 4° C. for HepG2 cells. After this incubation, the culture dishes were placed on ice, the medium was removed, and the cell monolayers were washed as described in Goldstein & Brown, J. Biol. Chem., 249: 5153-5162 (1974). The monolayers were then scraped off the dishes with a teflon policeman and were solubilized with 1 ml of 0.1 N NaOH.
Cell-associated radioactivity was measured in a Packard auto gamma scintillation spectrometer Model 5160, and cell protein was measured by the method of Lowry et al., J. Biol. Chem., 193: 265-275 (1951), using bovine serum albumin as a standard. Total ^125 I-LDL binding was expressed as the mass of ^125 I-LDL (mg) per mg of cell protein.
For purposes of comparison, ^125 I-LDL and cholesterol assays were also conducted in cultures prepared according to the above methods, but incubated with 26-hydroxycholesterol in one set of experiments and with the sterol 26-thiacholesterol in another set of experiments. These sterols were obtained according to known methods, similar to those described above for 26-aminocholesterol.

SMILES: C[C@@H](CN)CCC[C@@H](C)[C@H]1CC[C@H]2[C@@H]3CC=C4C[C@@H](O)CC[C@]4(C)[C@H]3CC[C@]12C [26-NH2, 26-aminocholesterol]
- % DE NOVO (De Novo Cholesterol Synthesis) (HepG2 Cells; 0.156 uM): 38.3%
- % DE NOVO (De Novo Cholesterol Synthesis) (HepG2 Cells; 0.312 uM): 45.1%
- % DE NOVO (De Novo Cholesterol Synthesis) (HepG2 Cells; 0.625 uM): 42.0%
- de novo cholesterol synthesis (in words) (HepG2 Cells): do not provide a similar reduction; also recorded: no impact
- % ESTER (Percent Esterified Cholesterol) (Human Fibroblasts; 0.156 uM): 26.4%
- TOTAL CHOLESTEROL (Human Fibroblasts; 0.156 uM): 27.9 +/- 5.3 ug cholesterol per mg cell pro
- % ESTER (Percent Esterified Cholesterol) (Human Fibroblasts; 0.312 uM): 18.6%
- TOTAL CHOLESTEROL (Human Fibroblasts; 0.312 uM): 31.5 +/- 6.1 ug cholesterol per mg cell pro
- % ESTER (Percent Esterified Cholesterol) (Human Fibroblasts; 0.625 uM): 6.4%
- TOTAL CHOLESTEROL (Human Fibroblasts; 0.625 uM): 20.3 +/- 6.4 ug cholesterol per mg cell pro
- 125I-LDL BINDING ([1]; 0.156 uM, human fibroblasts): 29.6 +/- 1.1 ug LDL protein per mg cell pro
- 125I-LDL BINDING ([1]; 0.312 uM, human fibroblasts): 22.6 +/- 5.4 ug LDL protein per mg cell pro
- 125I-LDL BINDING ([1]; 0.625 uM, human fibroblasts): 13.3 +/- 1.6 ug LDL protein per mg cell pro
- LDL-binding (in words) [1]: significant reductions; also recorded: downregulates LDL binding; also recorded: selectively inhibits and reduces LDL binding
- potency in comparison (in words) ([1]; human fibroblasts, versus 26-hydroxycholesterol): significantly more potent

SMILES: CC(CO)CCC[C@@H](C)[C@H]1CC[C@H]2[C@@H]3CC=C4C[C@@H](O)CC[C@]4(C)[C@H]3CC[C@]12C (some centres unmarked) [26-OH, 26-hydroxycholesterol]
- % DE NOVO (De Novo Cholesterol Synthesis) (HepG2 Cells; 0.625 uM): 57.1%
- de novo cholesterol synthesis (in words) (HepG2 Cells): do not provide a similar reduction
- % ESTER (Percent Esterified Cholesterol) (Human Fibroblasts; 0.625 uM): 28.7%
- TOTAL CHOLESTEROL (Human Fibroblasts; 0.625 uM): 24.7 +/- 2.8 ug cholesterol per mg cell pro
- 125I-LDL BINDING ([1]; 0.625 uM, human fibroblasts): 22.0 +/- 2.4 ug LDL protein per mg cell pro
- LDL-binding (in words) [1]: significant reductions

SMILES: CC(CS)CCC[C@@H](C)[C@H]1CC[C@H]2[C@@H]3CC=C4C[C@@H](O)CC[C@]4(C)[C@H]3CC[C@]12C (some centres unmarked) [26-SH]
- % DE NOVO (De Novo Cholesterol Synthesis) (HepG2 Cells; 5.0 uM): 49.7%
- % DE NOVO (De Novo Cholesterol Synthesis) (HepG2 Cells; 10.0 uM): 47.9%
- % DE NOVO (De Novo Cholesterol Synthesis) (HepG2 Cells; 20.0 uM): 41.9%
- de novo cholesterol synthesis (in words) (HepG2 Cells): no impact
- % ESTER (Percent Esterified Cholesterol) (Human Fibroblasts; 5.0 uM): 13.6%
- TOTAL CHOLESTEROL (Human Fibroblasts; 5.0 uM): 26.0 +/- 1.7 ug cholesterol per mg cell pro
- % ESTER (Percent Esterified Cholesterol) (Human Fibroblasts; 10.0 uM): 31.1%
- TOTAL CHOLESTEROL (Human Fibroblasts; 10.0 uM): 31.3 + /- 4.5 ug cholesterol per mg cell pro
- % ESTER (Percent Esterified Cholesterol) (Human Fibroblasts; 20.0 uM): 33.1%
- TOTAL CHOLESTEROL (Human Fibroblasts; 20.0 uM): 26.1 +/- 1.0 ug cholesterol per mg cell pro
- 125I-LDL BINDING ([1]; 5.0 uM, human fibroblasts): 37.9 +/- 1.8 ug LDL protein per mg cell pro
- 125I-LDL BINDING ([1]; 10.0 uM, human fibroblasts): 25.7 +/- 0.7 ug LDL protein per mg cell pro
- 125I-LDL BINDING ([1]; 20.0 uM, human fibroblasts): 35.7 +/- 4.8 ug LDL protein per mg cell pro
- LDL-binding (in words) [1]: no impact
